No end group written: not given here.
How the values were obtained:
[1] = design: species or system human; settings: in vivo
From the text: Eligible patients were identified with endometrial, ovarian, fallopian tube or peritoneal cancer and were disease-free after standard of care therapies. Patients were surgically or naturally post-menopausal. Exclusion criteria included patients currently receiving immunosuppressive therapy to include chemotherapy, steroids or methotrexate, poor health (ECOG […]), evidence of end-organ dysfunction, pregnancy, breast feeding, history of autoimmune disease, and involvement in other experimental protocols (except with permission of the principal investigator of the other study). […]
The E39 peptide (FBP 191-199, EIWTHSYKV) was produced commercially by an FDA-compliant production facility for patient use. […] This dose (250 mcg) of GM-CSF has been previously determined to be a safe and effective dose, based on our prior work with NeuVax^6. […]
The phase I portion of this trial consisted of dose escalation to determine a safe and effective dose of the E39 peptide. […] Prior to the fourth inoculation, each patient was assessed for liver, renal, and hematopoietic dysfunction. […]
Standard local and systemic toxicities were collected and graded per the National Cancer Institute Common Terminology Criteria for Adverse Events, v4.03 toxicity scale. […] Systemic toxicity and inoculation site local reactions were also determined after 48-72 hours.

[2] = Booster study: local reactions (LR) 48-72 hours after each booster, safety; type: in vivo, human; settings: 500 mcg peptide + 250 mcg GM-CSF booster
From the text: Booster inoculations of peptide vaccines may improve disease-free survival (DFS) (e.g., U.S. Pat. No. 8,222,214), but repeated boosting can theoretically lead to overstimulation and loss of vaccine-induced T cells. Therefore, to assess the use of the attenuated E39′ peptide as a booster, E39-vaccinated patients described in Example 1 were randomized to receive either E39 or E39′ as a booster to determine the effect on long-term E39-specific immunity. Patients in the VG received six intradermal E39 injections as described in Example 1 as a primary vaccination schedule (PVS). […]
Local reactions (LR) were recorded 48-72 hours after each booster. Immune response was determined by measurement of E39 specific CTL levels using a Dextramer reagents in accordance with the manufacturer's instructions (Immudex Limited, Copenhagen, Denmark) as previously described (e.g., Tario et al. Cytometry B Clin. Cytom. 2015; 88B:6-20; Baba J. Transl Med. 2010; 8:84), at R0 (baseline pre-vaccination), RC1(1 month after completion of PVS), RC6 (6 months after completion of PVS and before booster), RC7 (1 month after booster) and RC12 (6 months after booster and 12 months after completion of PVS). Demographic, safety, immunological, and DFS data were collected and evaluated.

[3] = test system: tumor-associated lymphocyte (TAL); settings: cited from earlier work

EIWTHSYKV [E39, EIWTHSYKV]
patients experiencing grade 3 toxicity [1]: 1 patient

EIWTFSTKV [E39′, EIWTFSTKV]
safety of booster [2]: safe

E41: FRα-derived immunogenic peptide E41 (FRα 245-253) (LLSLALMLL; UniProt P15328 245-253, looked up, fragment)
effect on TAL proliferation and anti-tumor function [3]: capable of enhancing tumor-associated lymphocyte (TAL) proliferation and anti-tumor function

Source: patent publication US9993538B2, “Peptide vaccine therapy for treatment of FRα-expressing tumors” (Galena Biopharma, Inc., priority 2015, dated 2018)
